Each block holds one molecule with its values, some of them ahead of it.
Columns and labels:
BaF3 = test: Antiproliferative activity against mouse BaF3 cells transfected with EGFR […]/T790M mutant assessed as inhibition of cell growth; assay type: functional, cell-based
[1] = test system: Epidermal growth factor receptor (Homo sapiens), P00533 [UNDEFINED MUTATION]; test: Inhibition of EGFR del19 mutant (unknown origin) assessed as fold change
NCI-H1975 [2] = test: Antiproliferative activity against human NCI-H1975 cells expressing EGFR T790M mutant assessed as inhibition of EGFR phosphorylation; assay type: functional, cell-based
A-431 = test: Antiproliferative activity against human A-431 cells expressing wild type EGFR assessed as inhibition of cell growth; assay type: functional, cell-based
NCI-H1975 [3] = test: Antiproliferative activity against human NCI-H1975 cells expressing EGFR L858R/T790M mutant assessed as inhibition of cell growth; assay type: functional, cell-based
[4] = target: von Hippel-Lindau disease tumor suppressor/Receptor tyrosine-protein kinase erbB-2 (Homo sapiens, UniProt P04626+P40337); test: PROTAC activity at VHL/HER2 in human SK-BR-3 cells assessed as protein degradation incubated for 24 hrs by immunoblot analysis; assay type: cell-based
[5] = target: von Hippel-Lindau disease tumor suppressor/Epidermal growth factor receptor (Homo sapiens, UniProt P00533+P40337); test: PROTAC activity at VHL/EGFR ins20 mutant in human HeLa cells assessed as protein degradation incubated for 24 hrs by immunoblot analysis; assay type: cell-based
[6] = target: T1, Epidermal growth factor receptor (Homo sapiens, UniProt P00533); test: Inhibition of wild type EGFR in human A549 cells; assay type: cell-based
[7] = target: T1, Epidermal growth factor receptor; test: Inhibition of wild type EGFR in human A-431 cells; assay type: cell-based
[8] = target: T1, Epidermal growth factor receptor; test: Inhibition of EGFR in human NCI-H1975 cells; assay type: cell-based
[9] = target: Epidermal growth factor receptor (Homo sapiens, UniProt P00533, EX19DEL); test: Inhibition of EGFR del19 mutant in human HCC827 cells; assay type: cell-based
Sequence of Epidermal growth factor receptor (Homo sapiens, UniProt P00533, EX19DEL) (P00533 whole entry, looked up, stated change not applied): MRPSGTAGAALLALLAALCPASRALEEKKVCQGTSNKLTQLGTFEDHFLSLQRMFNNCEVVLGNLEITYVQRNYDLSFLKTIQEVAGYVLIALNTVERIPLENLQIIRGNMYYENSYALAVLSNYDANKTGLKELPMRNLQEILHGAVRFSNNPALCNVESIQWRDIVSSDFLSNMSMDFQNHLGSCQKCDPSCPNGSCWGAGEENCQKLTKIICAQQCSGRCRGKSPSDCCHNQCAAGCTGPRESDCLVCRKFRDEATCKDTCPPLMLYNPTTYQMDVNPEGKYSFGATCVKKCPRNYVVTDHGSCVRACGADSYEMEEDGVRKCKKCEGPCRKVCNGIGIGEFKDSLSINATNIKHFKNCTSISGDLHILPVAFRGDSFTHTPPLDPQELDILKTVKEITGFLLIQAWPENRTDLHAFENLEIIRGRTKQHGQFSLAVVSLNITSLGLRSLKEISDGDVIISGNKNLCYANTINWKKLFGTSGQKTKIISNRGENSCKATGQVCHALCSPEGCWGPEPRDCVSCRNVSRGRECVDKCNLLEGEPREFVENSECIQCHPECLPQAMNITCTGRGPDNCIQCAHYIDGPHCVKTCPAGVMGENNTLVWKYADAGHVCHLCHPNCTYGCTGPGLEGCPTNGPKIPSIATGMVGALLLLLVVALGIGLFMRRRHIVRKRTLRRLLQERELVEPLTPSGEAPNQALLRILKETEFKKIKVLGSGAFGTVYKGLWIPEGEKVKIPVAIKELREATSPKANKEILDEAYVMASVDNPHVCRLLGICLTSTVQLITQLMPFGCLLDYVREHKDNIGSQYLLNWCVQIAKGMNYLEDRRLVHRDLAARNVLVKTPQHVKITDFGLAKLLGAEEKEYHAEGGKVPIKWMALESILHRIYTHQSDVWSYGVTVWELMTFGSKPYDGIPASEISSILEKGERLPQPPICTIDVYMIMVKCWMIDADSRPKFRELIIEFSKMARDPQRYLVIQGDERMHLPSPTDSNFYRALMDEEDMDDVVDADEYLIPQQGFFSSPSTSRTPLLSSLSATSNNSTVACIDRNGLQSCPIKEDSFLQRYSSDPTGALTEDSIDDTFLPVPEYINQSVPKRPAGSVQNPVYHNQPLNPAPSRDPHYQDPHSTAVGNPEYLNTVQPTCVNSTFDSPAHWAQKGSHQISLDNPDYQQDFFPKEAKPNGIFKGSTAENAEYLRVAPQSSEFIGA

T1 sequence (P00533 whole entry): as the sequence (P00533 whole entry, looked up, stated change not applied) above
Sequence of Epidermal growth factor receptor (Homo sapiens), P00533 [UNDEFINED MUTATION] (P00533 whole entry, looked up, stated change not applied): as above
Sequence of von Hippel-Lindau disease tumor suppressor/Epidermal growth factor receptor (P00533 25-1210 limits assumed, stated change not applied): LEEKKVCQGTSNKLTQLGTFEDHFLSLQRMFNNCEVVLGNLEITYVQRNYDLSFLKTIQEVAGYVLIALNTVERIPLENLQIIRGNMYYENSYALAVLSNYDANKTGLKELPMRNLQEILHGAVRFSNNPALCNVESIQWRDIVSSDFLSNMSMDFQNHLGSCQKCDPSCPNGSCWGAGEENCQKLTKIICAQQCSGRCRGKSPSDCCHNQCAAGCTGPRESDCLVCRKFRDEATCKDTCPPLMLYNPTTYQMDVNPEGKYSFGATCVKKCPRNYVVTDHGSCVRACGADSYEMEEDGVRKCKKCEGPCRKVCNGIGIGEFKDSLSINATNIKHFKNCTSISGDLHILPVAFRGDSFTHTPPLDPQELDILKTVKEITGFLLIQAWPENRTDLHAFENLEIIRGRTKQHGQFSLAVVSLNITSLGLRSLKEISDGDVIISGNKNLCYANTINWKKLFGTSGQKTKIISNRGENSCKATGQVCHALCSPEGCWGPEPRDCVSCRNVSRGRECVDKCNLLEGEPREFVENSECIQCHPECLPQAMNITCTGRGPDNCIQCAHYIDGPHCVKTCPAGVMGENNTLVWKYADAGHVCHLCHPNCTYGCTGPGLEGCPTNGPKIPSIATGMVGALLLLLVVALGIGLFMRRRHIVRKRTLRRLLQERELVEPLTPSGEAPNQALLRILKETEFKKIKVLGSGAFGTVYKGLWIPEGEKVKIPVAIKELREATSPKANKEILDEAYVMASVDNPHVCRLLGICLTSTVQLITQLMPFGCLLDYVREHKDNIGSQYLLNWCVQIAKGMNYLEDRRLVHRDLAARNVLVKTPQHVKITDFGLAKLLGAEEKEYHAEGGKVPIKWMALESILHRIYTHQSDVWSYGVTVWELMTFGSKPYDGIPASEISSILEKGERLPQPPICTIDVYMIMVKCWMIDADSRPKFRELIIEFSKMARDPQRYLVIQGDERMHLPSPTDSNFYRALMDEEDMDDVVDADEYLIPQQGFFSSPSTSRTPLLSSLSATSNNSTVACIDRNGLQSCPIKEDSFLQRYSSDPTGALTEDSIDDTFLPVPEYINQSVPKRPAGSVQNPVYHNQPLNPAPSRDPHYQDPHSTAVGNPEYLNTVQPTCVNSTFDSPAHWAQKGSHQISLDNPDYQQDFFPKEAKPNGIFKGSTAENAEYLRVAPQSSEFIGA
Sequence of von Hippel-Lindau disease tumor suppressor/Epidermal growth factor receptor (P40337 whole entry, stated change not applied): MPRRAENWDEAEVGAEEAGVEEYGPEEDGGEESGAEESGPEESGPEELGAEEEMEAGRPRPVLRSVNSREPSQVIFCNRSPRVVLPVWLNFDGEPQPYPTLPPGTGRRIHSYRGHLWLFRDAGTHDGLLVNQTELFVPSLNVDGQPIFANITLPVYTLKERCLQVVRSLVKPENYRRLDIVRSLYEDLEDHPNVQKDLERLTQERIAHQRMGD

Structure (SMILES): O=C1CCC(N2C(=O)c3cccc(NCCOCCOCCOCCN4CCN(c5ccc(-c6ccc7c(c6)C(=O)N(C(C(=O)Nc6nccs6)c6ccccc6)C7)cn5)CC4)c3C2=O)C(=O)N1 (stereo unspecified)
- IC50 (BaF3): 0.096 µM

Structure (SMILES): O=C(Nc1nccs1)C(c1cc(F)ccc1O)N1Cc2ccccc2C1=O (stereo unspecified)
- IC50 (A-431): 1.9 µM
- IC50 (NCI-H1975 [3]): 0.002 µM

Structure (SMILES): Cc1ncsc1-c1ccc(CNC(=O)[C@@H]2C[C@@H](O)CN2C(=O)[C@@H](NC(=O)COCCOCCOc2ccc(-c3ccc4ncnc(Nc5ccc(OCc6cccc(F)c6)c(Cl)c5)c4c3)cc2)C(C)(C)C)cc1
- DC50 [4]: 0.102 µM
- DC50 [5]: 0.736 µM

The remaining lines, values ahead:

- fold change (FC) [1]: 1000
Structure (SMILES): COc1cc2ncnc(N(Cc3ccc([N+](=O)[O-])cc3)c3ccc(F)c(Cl)c3)c2cc1OCCOCCOCCOCCC(=O)Nc1cccc2c1CN(C1CCC(=O)NC1=O)C2=O (stereo unspecified)

- IC50 (NCI-H1975 [2]): 0.093 µM
Structure (SMILES): CN(C)C/C=C/C(=O)Nc1cc2c(Nc3ccc(F)c(Cl)c3)ncnc2cc1O[C@H]1CCOC1 [AFATINIB]

- IC50 [6]: > 20 µM
- IC50 [7]: > 20 µM
- IC50 [8]: > 20 µM
- IC50 [9]: 0.006 µM
Structure (SMILES): Cc1ncsc1-c1ccc(CNC(=O)[C@@H]2C[C@@H](O)CN2C(=O)[C@@H](NC(=O)CCCCCCCCCCn2cc(COc3cc4ncnc(Nc5ccc(F)c(Cl)c5)c4cc3NC(=O)/C=C/CN3CCCCC3)nn2)C(C)(C)C)cc1
